Data: patent US10844013B2, “Phenyl amino piperidine mTORC inhibitors and uses thereof” (Navitor Pharmaceuticals, Inc., priority 2016, dated 2020)

Key:
Type in all cases: cell-based
[1] = tested on: pS6K1 (p-p70 S6 Kinase (Thr389)) in MCF-7 cells; assay: AlphaLISA Ultra pS6K1 assay; details: Homo sapiens, MCF7, 2 h, 2 hours compound incubation
Procedure, shortened: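 MCF-7 cells seeded 20–24 h, medium refreshed 2 h, then treated 2 h with compound (0.5% DMSO final). Lysates probed for Thr389-phosphorylated p70 S6K by AlphaLISA Ultra, 2 h acceptor then 2 h donor bead incubation, read on a multimode reader.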

[2] = tested on: pAKT (p-Akt 1/2/3 (Ser473)) in MCF-7 cells; assay: AlphaLISA Ultra pAKT assay; details: Homo sapiens, MCF7, 2 hours compound incubation
Procedure, shortened: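 MCF-7 cells seeded 20-24 h, medium refreshed for 2 h, then treated with compounds for 2 h at 0.5% final DMSO. Lysates frozen at −80 °C, then pAKT detected by AlphaLISA with acceptor and donor beads, 2 h each.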

MCF-7 cells = assay: Radioactive glucose uptake in MCF-7 cells; details: Homo sapiens, MCF7, 3H-2DG uptake
Protocol: Example 157: Radioactive Glucose Uptake in MCF-7 Cells
Assay Protocol • 1. Seed approximately 12,000 MCF-7 cells cultured without insulin per well in 96-well plates (BIOCOAT, #356690) and let the cells sit in hood for 30 min. (Cell culture medium: DMEM+10% FBS). • 2. Put the cell culture plates in TC incubator (5% CO2, 37° C.) and incubate overnight. • 3. Take out the cell plates and wash with prewarmed KRH buffer (37° C.) three times using BioTek plate washer. (KRH buffer preparation: 136 mM NaCl, 4.7 mM KCl, 1.25 mM MgCl2, 1.2 mM CaCl2), 20 mM HEPES, 0.1 mg/ml sodium pyruvate, 0.1% BSA, pH 7.4). • 4. Compound preparation and treatment: • a) Add 12 ul compound stock in 100% DMSO to the first column of Echo LDV plate • b) Serially dilute the compound solution in 100% DMSO (4 uL+8 uL DMSO) using Bravo for 9 doses • c) Dispense 350 nL compounds using Echo to the working plate. • d) i) Without compound preincubation condition, dispense 116 uL KRH buffer containing tritiated 2-deoxy-D-glucose (3H-2DG) and 2-deoxy-D-glucose (2DG) to the working plate and mix. • ii. With compound preincubation condition, dispense 110 uL KRH buffer only to the working plates and mix • e) Keep the compound working plate at 37° C. incubator until use • 5. Discard the KRH buffer (cells were kept in KRH buffer for 10-15 min before 2-DG addition) and transfer 100 uL compound working solution out to the cell culture plate using Bravo. Incubate for 20 mins at 37° C. (2DG final at 0.2 mM, 3H-2DG at 10 uCi/mL). • 6. Add prewarmed 50 uL KRH buffer (37° C.) containing 60 mM cold 2DG to the wells to stop the 2DG uptake using Multidrop combi • 7. Wash the cells with prewarmed PBS three times using BioTek plate washer • 8. Add 50 uL lysis buffer (0.1 M NaOH) into the assay plate to lyse the cells using Bravo and shake at 800 rpm for 30 min. • 9. Mix and transfer 20 uL lysate to a new white plate (Corning, #3610) and add 200 uL MicroScint-20 using Bravo • 10. Shake the plate at 1000 rpm for 30 min and count in a MicroBeta plate reader.

| IC50 [1] [nM] | IC50 [2] [nM] | IC50 (MCF-7 cells) [nM] | SMILES |
| --- | --- | --- | --- |
| > 10000 | > 10000 | > 10000 | Cc1nc(C)c(C(=O)N2CCN(c3ccccc3S(N)(=O)=O)CC2)cc1NC1CCN(c2ccccc2C#N)CC1 [I-12, 2-(4-(5-(1-(2-Cyanophenyl)piperidin-4-ylamino)-2,6-dimethylnicotinoyl)piperazin-1-yl)benzenesulfonamide] |
| 10 to 1000 | > 10000 | 10 to 1000 | Cc1cc(C)c(C(=O)N2CCN(c3cccc(F)c3S(N)(=O)=O)CC2)c(C)c1NC1CCN(c2ccccc2C#N)CC1 [I-14, 2-(4-(3-(1-(2-Cyanophenyl)piperidin-4-ylamino)-2,4,6-trimethylbenzoyl)piperazin-1-yl)-6-fluorobenzenesulfonamide] |
| 10 to 1000 | > 10000 | 10 to 1000 | Cc1cc(C)c(C(=O)N2CCN(c3ncccc3S(N)(=O)=O)CC2)c(C)c1NC1CCN(c2ccccc2C#N)CC1 [I-15, 2-(4-(3-(1-(2-Cyanophenyl)piperidin-4-ylamino)-2,4,6-trimethylbenzoyl)piperazin-1-yl)pyridine-3-sulfonamide] |
| 3000 to 5000 | > 10000 | 3000 to 5000 | Cc1ccc(NC2CCN(c3ccccc3C#N)CC2)cc1C(=O)N1CCN(c2ccccc2S(N)(=O)=O)CC1 [I-22, 2-(4-(5-(1-(2-Cyanophenyl)piperidin-4-ylamino)-2-methylbenzoyl)piperazin-1-yl)benzenesulfonamide] |
| 10 to 1000 | > 10000 | 10 to 1000 | Cc1cc(C)c(C(=O)N2CCN(c3ncccc3S(N)(=O)=O)CC2)nc1NC1CCN(c2ccccc2C#N)CC1 [I-25, 2-(4-(6-(1-(2-Cyanophenyl)piperidin-4-ylamino)-3,5-dimethylpicolinoyl)piperazin-1-yl)pyridine-3-sulfonamide] |
| 10 to 1000 | > 10000 | 10 to 1000 | Cc1cc(C)c(C(=O)N2CCN(c3ccccc3S(N)(=O)=O)C[C@@H]2C)nc1NC1CCN(c2ccccc2C#N)CC1 [I-26, (S)-2-(4-(6-(1-(2-Cyanophenyl)piperidin-4-ylamino)-3,5-dimethylpicolinoyl)-3-methylpiperazin-1-yl)benzenesulfonamide] |
| 10 to 1000 | > 10000 | 10 to 1000 | Cc1cc(C)c(C(=O)N2CCN(c3ccccc3S(N)(=O)=O)CC2)cc1NC1CCN(c2ccccc2C#N)CC1C (stereo not drawn) [I-43, 2-(4-(5-(1-(2-Cyanophenyl)-3-methylpiperidin-4-ylamino)-2,4-dimethylbenzoyl)piperazin-1-yl)benzenesulfonamide] |
| 10 to 1000 | > 10000 | 10 to 1000 | Cc1cc(C)c(C(=O)N2CCN(c3cncc4cn[nH]c34)CC2)cc1NC1CCN(c2ccccc2C#N)CC1 [I-44, 2-(4-(5-(4-(1H-Pyrazolo[4,3-c]pyridin-7-yl)piperazine-1-carbonyl)-2,4-dimethylphenylamino)piperidin-1-yl)benzonitrile] |
| 10 to 1000 | > 10000 | 10 to 1000 | Cc1cc(C)c(C(=O)N2CCN(c3ccccn3)[C@H](C)C2)cc1NC1CCN(c2ccccc2C#N)CC1 [I-45, (R)-2-(4-(2,4-Dimethyl-5-(3-methyl-4-(pyridin-2-yl)piperazine-1-carbonyl)phenylamino)piperidin-1-yl) benzonitrile] |
| 1000 to 3000 | > 10000 | 10 to 1000 | Cc1cc(C)c(C(=O)N2CCN(c3ncccc3S(N)(=O)=O)CC2)cc1NC1CCN(c2ccccc2C#N)CC1 [I-60] |
| 10 to 1000 | > 10000 | 10 to 1000 | Cc1cc(C)c(C(=O)N2CCN(c3cccc4c3NC(=O)C4)CC2)cc1NC1CCN(c2ccccc2C#N)CC1 [I-61, 2-(4-(2,4-Dimethyl-5-(4-(2-oxoindolin-7-yl)piperazine-1-carbonyl)phenylamino)piperidin-1-yl)benzonitrile] |
| 10 to 1000 | > 10000 | 10 to 1000 | Cc1cc(C)c(C(=O)N2CCN(c3cccc(F)c3)C(CO)C2)cc1NC1CCN(c2ccccc2C#N)CC1 (stereo not drawn) [I-75, 2-[4-({5-[4-(3-Fluorophenyl)-3-(hydroxymethyl)piperazine-1-carbonyl]-2,4-dimethylphenyl}amino)piperidin-1-yl]benzonitrile] |
| 5000 to 10000 | > 10000 | 1000 to 3000 | Cc1cc(C)c(C(=O)N2CCN(c3nnnn3C)[C@H](CO)C2)cc1NC1CCN(c2ccccc2C#N)CC1 [I-91, (S)-2-(4-(5-(3-(Hydroxymethyl)-4-(1-methyl-1H-tetrazol-5-yl)piperazine-1-carbonyl)-2,4-dimethylphenylamino)piperidin-1-yl) benzonitrile] |
| 10 to 1000 | > 10000 | 10 to 1000 | Cc1cc(C)c(C(=O)N2CCN(c3cc(F)ccn3)[C@H](CO)C2)cc1NC1CCN(c2ccccc2C#N)CC1 [I-100, (S)-2-(4-(5-(4-(4-Fluoropyridin-2-yl)-3-(hydroxymethyl)piperazine-1-carbonyl)-2,4-dimethylphenylamino)piperidin-1-yl)benzonitrile] |
| 10 to 1000 | > 10000 | 10 to 1000 | Cc1cccc(N2CCN(C(=O)c3cc(NC4CCN(c5ccccc5C#N)CC4)c(C)cc3C)C[C@H]2CO)n1 [I-102, (S)-2-(4-(5-(3-(Hydroxymethyl)-4-(6-methylpyridin-2-yl)piperazine-1-carbonyl)-2,4-dimethylphenylamino)piperidin-1-yl)benzonitrile] |
| 10 to 1000 | > 10000 | 10 to 1000 | Cc1cc(C)c(S(=O)(=O)N2CCN(c3ccccc3S(N)(=O)=O)CC2)nc1NC1CCN(c2ccccc2C#N)CC1 [I-111, 2-(4-(6-(1-(2-Cyanophenyl)piperidin-4-ylamino)-3,5-dimethylpyridin-2-ylsulfonyl)piperazin-1-yl)benzenesulfonamide] |
| 10 to 1000 | > 10000 | 10 to 1000 | Cc1ccc(C(=O)N2CCN(c3cccnc3S(N)(=O)=O)CC2)c(C)c1NC1CCN(c2ccccc2C#N)CC1 [I-121, 3-(4-(3-(1-(2-cyanophenyl)piperidin-4-ylamino)-2,4-dimethylbenzoyl)piperazin-1-yl)pyridine-2-sulfonamide] |
| 10 to 1000 | > 10000 | 10 to 1000 | COc1ccccc1N1CCC(Nc2cc(C(=O)N3CCN(c4ccccc4S(N)(=O)=O)CC3)c(C)cc2C)CC1 [I-128, 2-(4-(5-(1-(2-Methoxyphenyl)piperidin-4-ylamino)-2,4-dimethylbenzoyl)piperazin-1-yl)benzenesulfonamide] |
| 3000 to 5000 | > 10000 | 3000 to 5000 | Cc1cc(C)c(C(=O)N2CCN(c3ccccc3S(N)(=O)=O)CC2)cc1NC1CN(c2ccccc2C#N)C1 [I-130, 2-(4-(5-(1-(2-Cyanophenyl)azetidin-3-ylamino)-2,4-dimethylbenzoyl)piperazin-1-yl)benzenesulfonamide] |
| 10 to 1000 | > 10000 | 10 to 1000 | Cc1cc(C)c(C(=O)N2CCN(c3ccccn3)C(=O)C2)c(C)c1NC1CCN(c2ccccc2C#N)CC1 [I-138, 2-[4-({2,4,6-trimethyl-3-[3-oxo-4-(pyridin-2-yl)piperazine-1-carbonyl]phenyl}amino)piperidin-1-yl] benzonitrile] |
| 10 to 1000 | > 10000 | 10 to 1000 | Cc1cc(C)c(C(=O)N2CCN(c3cccnn3)[C@H](CO)C2)c(C)c1NC1CCN(c2ccc(F)cc2C#N)CC1 [I-141, 5-Fluoro-2-[4-[3-[(3S)-3-(hydroxymethyl)-4-pyridazin-3-yl-piperazine-1-carbonyl]-2,4,6-trimethyl-anilino]-1-piperidyl]benzonitrile] |
| 10 to 1000 | > 10000 | 10 to 1000 | Cc1cc(C)c(C(=O)N2CCN(c3ccccn3)[C@H](CO)C2)c(C)c1NC1CCN(c2cccnn2)CC1 [I-159, [(2S)-1-(pyridin-2-yl)-4-(2,4,6-trimethyl-3-{[1-(pyridazin-3-yl)piperidin-4-yl]amino}benzoyl)piperazin-2-yl]MeOH] |
